Measurements reported in ChEMBL document CHEMBL2074418, “Limited oral bioavailability and active epithelial excretion of paclitaxel (Taxol) caused by P-glycoprotein in the intestine” (Proc Natl Acad Sci U S A, 1997).

Columns and labels:
[1] = molecular target: T1, ATP-dependent translocase ABCB1 (Mus musculus, UniProt P21447); assay: TP_TRANSPORTER: increase in plasma concentration in mdr1a(-/-) mouse; assay type: functional, organism-based; details: in vivo
[2] = molecular target: T1, ATP-dependent translocase ABCB1; assay: TP_TRANSPORTER: increase in bioavailability in mdr1a(-/-) mouse; assay type: functional, organism-based; details: in vivo

T1 sequence (P21447 whole entry): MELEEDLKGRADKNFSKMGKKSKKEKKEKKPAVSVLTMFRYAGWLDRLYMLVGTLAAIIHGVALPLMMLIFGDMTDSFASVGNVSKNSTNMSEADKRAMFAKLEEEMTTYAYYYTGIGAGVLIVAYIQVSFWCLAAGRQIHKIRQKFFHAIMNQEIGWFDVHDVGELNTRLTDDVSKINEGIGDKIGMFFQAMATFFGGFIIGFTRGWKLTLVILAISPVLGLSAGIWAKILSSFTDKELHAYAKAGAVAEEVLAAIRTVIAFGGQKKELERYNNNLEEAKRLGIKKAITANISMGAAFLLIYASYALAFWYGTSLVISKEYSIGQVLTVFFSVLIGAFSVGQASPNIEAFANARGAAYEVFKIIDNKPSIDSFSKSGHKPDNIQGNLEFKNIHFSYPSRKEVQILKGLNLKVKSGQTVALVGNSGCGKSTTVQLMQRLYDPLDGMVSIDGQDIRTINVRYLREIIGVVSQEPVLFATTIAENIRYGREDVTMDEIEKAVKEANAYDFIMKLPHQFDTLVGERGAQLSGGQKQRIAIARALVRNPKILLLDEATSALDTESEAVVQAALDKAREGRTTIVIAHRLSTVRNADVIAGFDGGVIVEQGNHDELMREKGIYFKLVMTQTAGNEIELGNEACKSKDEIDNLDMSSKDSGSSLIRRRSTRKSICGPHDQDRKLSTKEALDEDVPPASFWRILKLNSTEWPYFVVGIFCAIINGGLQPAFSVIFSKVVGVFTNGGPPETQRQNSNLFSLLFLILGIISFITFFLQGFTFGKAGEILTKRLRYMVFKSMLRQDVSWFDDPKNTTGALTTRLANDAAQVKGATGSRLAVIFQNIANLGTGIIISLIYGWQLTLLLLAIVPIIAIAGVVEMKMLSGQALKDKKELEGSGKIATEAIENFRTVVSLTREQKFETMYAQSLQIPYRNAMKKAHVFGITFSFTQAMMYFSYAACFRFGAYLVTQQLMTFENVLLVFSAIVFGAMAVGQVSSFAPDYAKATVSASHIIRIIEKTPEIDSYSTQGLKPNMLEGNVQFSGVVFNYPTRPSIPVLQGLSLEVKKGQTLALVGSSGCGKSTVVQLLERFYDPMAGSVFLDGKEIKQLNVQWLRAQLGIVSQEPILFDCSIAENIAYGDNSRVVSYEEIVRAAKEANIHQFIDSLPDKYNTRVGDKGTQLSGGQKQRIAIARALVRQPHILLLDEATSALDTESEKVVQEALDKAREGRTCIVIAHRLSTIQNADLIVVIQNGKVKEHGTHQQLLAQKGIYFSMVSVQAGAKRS

Activity [1]: substrate [+]
Activity [2]: substrate [+]
Compound: CC(=O)O[C@H]1C(=O)[C@@]2(C)[C@H]([C@H](OC(=O)c3ccccc3)[C@]3(O)C[C@H](OC(=O)[C@H](O)[C@@H](NC(=O)c4ccccc4)c4ccccc4)C(C)=C1C3(C)C)[C@]1(OC(C)=O)CO[C@@H]1C[C@@H]2O [PACLITAXEL]
